Several values for one entry are separate records, joined by “and”; a condition that tells them apart may be missing. Equal entries are not always repeated. Where two headings read alike, the source gives them in different places.
Experiments:
[1] = tested on: tonic hindlimb seizure following corneal stimulation in CF-1 mice; experiment: Mouse maximal electroshock (MES) assay, 60 Hz 50 mA corneal stimulation; assay type: in vivo; conditions: for IC50: Mus musculus
Method: The interaction of Compound A with other ASMs was evaluated after oral dosing in the mouse maximal electroshock (MES) assay to determine whether some combinations were favorable or unfavorable. Efficacy was quantified by calculating the fraction of animals with a tonic hindlimb seizure following corneal stimulation. Compound Preparation: Compound A was initially solubilized in DMSO. This solution was then added into a 0.5% methyl cellulose solution to create a more even and less aggregated compound suspension. Serial dilutions were prepared from the tube with the highest concentration of Compound A and the compound suspensions were further vortexed prior to animal dosing. The final concentration of DMSO was 5%, an amount with no apparent toxicity or neuroprotection in the MES assay. […] Animals: Adult male CF-1 albino mice (25-35 g) purchased from Harlan-Envigo were used. The mice were housed four per cage and had access to filtered water and chow ad libidum, throughout the experiment. MES Assay: Compounds were administered orally by gavage before testing unless indicated otherwise. During MES testing, a 60-Hz alternating current (50 mA) was delivered for 0.2 seconds through corneal electrodes to the mice. A drop of 0.5% Alcaine solution was placed on the eye prior to current delivery. The electrodes were subsequently placed gently onto the eyes of the animal and the electrical shock was initiated by triggering through a foot-pedal activator. The animals were restrained by hand and gently released as the shock was delivered and the seizure commenced. Animals were monitored for hind limb tonic extension as the end point for this test. Statistical analysis: All statistics were calculated using Prism version 7 software (Graphpad Software). The method used for each experiment is indicated in the results section. Concentration-response curves were calculated as best fits to the equation […] where X was the log of plasma concentration. Unless indicated otherwise, bottom was constrained to be 0. Top was constrained to be the value determined experimentally by vehicle control measurements. Compound A Dose Response: […]

[2] = Plasma and brain concentrations in 6 Hz studies (LC-MS/MS); assay type: in vivo, mouse
Method: Sample Collection and Preparation: Mice were anesthetized by isoflurane inhalation (TECH-018) until they reached a surgical plane of anesthesia. Then a syringe (1 mL syringe with a 22 gauge needle) was inserted under the sternum into the heart (TECH-031). Approximately 0.5 mL of blood was collected, deposited into a K2EDTA tube, and stored on ice. Animals were then euthanized by cervical dislocation (TECH-018). Brains were removed, placed into a pre-weighed vial, and snap frozen on dry ice. At the end of the sample collection, blood was centrifuged at 4000 rpm for 10 minutes at 4° C., and the plasma pipetted into a labeled tube. All samples were stored in a −80° C. freezer until bioanalysis (8 days after sample collection for Studies 3A and 3B; 20 days after sample collection for Study 3C).
Plasma and Tissue Sample Analysis: Bead mill polypropylene tubes containing weighed brain tissues were thawed at room temperature and 3 mL of homogenization solvent (water:acetonitrile (1:1, v:v)) was added. The tubes were placed in the Bead Mill Homogenizer (Bead Ruptor Elite Model, Omni International) and shaken at a velocity of 3.70 m/s for a single cycle lasting 30 seconds. The homogenized tube was centrifuged at 4000 rpm for 20 minutes, the supernatant was transferred to a 1.5 mL Eppendorf tube, and stored frozen at −80° C. until analysis. All samples including plasma and brain homogenate extracts (including calibration and quality control (QC) samples prepared in K2EDTA rat plasma), were extracted by protein precipitation. […] The samples in the 1.5 mL tubes were vortex mixed and then centrifuged for 20 minutes at 13,000 rpm. Fifty microliters of the supernatant was mixed with 150 μL of water/acetonitrile (1:1) in a 96 well plate which was centrifuged post mixing for 20 minutes at 4000 rpm, and was then ready for analysis by liquid chromatography tandem mass spectrometry (LC-MS/MS).
Samples were analyzed by a research-grade LC-MS/MS method as follows: […]

[3] = in vivo; conditions: mouse
[4] = Compound A 1 mg/kg PO, 0.5 h before assay
[5] = Compound A 1 mg/kg PO, 2 h before assay
[6] = Compound A 2 mg/kg PO, 0.5 h before assay
[7] = Compound A 2 mg/kg PO, 2 h before assay
[8] = Compound A 4 mg/kg PO, 0.5 h before assay
[9] = Compound A 4 mg/kg PO, 2 h before assay
[10] = Compound A 8 mg/kg PO, 0.5 h before assay
[11] = Compound A 8 mg/kg PO, 2 h before assay

Cc1cc(N2CCc3cc(F)ccc3C2)cc(C)c1NC(=O)CC(C)(C)C [Compound A, N-[4-(6-fluoro-3,4-dihydro-1H-isoquinolin-2-yl)-2,6-dimethylphenyl]-3,3-dimethylbutanamide]
fraction of animals without tonic seizures ([1]; Compound A 0.25 mg/kg PO 2 h alone (phenytoin study)): 0/8
fraction of animals without tonic seizures ([1]; Compound A 0.75 mg/kg PO 2 h alone (phenytoin study)): 2/8
reduction of the fraction with tonic seizures ([1]; Compound A 1 mg/kg): 26.7%
maximum % seizures of fitted curve, reflecting efficacy of Compound A alone ([1]; Compound A 1 mg/kg PO 2 h): 73.3%
number of mice without tonic seizures/total ([1]; Compound A 1 mg/kg PO 2 h + Vehicle IP 0.5 h (valproic acid study)): 4/15
fraction of mice without tonic seizures ([1]; Compound A 1 mg/kg PO 2 h alone (levetiracetam study)): 2/11
fraction of animals without tonic seizures ([1]; Compound A 1 mg/kg PO 2 h alone (phenytoin study)): 2/8
number of mice with tonic seizures/total number tested [1, 4]: 4/7
percentage of mice protected from hindlimb tonic extensor component [1, 4]: 42.9%
number of mice with tonic seizures/total number tested [1, 5]: 5/7
percentage of mice protected from hindlimb tonic extension [1, 5]: 28.6%
number of mice with tonic seizures/total number tested [1, 6]: 2/7
percentage of mice protected from hindlimb tonic extensor component [1, 6]: 71.4%
number of mice with tonic seizures/total number tested [1, 7]: 4/7
percentage of mice protected from hindlimb tonic extension [1, 7]: 42.9%
fraction of animals without tonic seizures ([1]; Compound A 2.5 mg/kg PO 2 h alone (phenytoin study)): 4/8
number of mice with tonic seizures/total number tested [1, 8]: 1/7
percentage of mice protected from hindlimb tonic extensor component [1, 8]: 85.7%
number of mice with tonic seizures/total number tested [1, 9]: 2/7
percentage of mice protected from hindlimb tonic extension [1, 9]: 71.4%
number of mice with tonic seizures/total number tested [1, 10]: 3/7
percentage of mice protected from hindlimb tonic extensor component [1, 10]: 71.4%
number of mice with tonic seizures/total number tested [1, 11]: 1/7
percentage of mice protected from hindlimb tonic extension [1, 11]: 85.7%
fraction of mice without tonic seizures ([1]; Compound A […] PO 2 h alone (levetiracetam study)): 3/8
IC50 ([1]; Compound A PO alone, data 2 hours after dosing, read-out: IC50 based upon brain concentration (inhibition of tonic seizures)): 275 nM
IC50 ([1]; Compound A PO alone, data 2 hours after dosing, read-out: IC50 based upon plasma concentration (inhibition of tonic seizures)): 154 nM
IC50 ([1]; Compound A alone (phenytoin study), read-out: IC50 for Compound A (inhibition of tonic seizures, plasma concentration)): 147 nM
fold higher brain concentration of Compound A in Study 3C compared to Study 3B ([2]; 1 hour post dosing): 11 fold
fold higher plasma concentration of Compound A in Study 3C compared to Study 3B ([2]; 1 hour post dosing): 12 fold
concentration at 1 h ([2]; CF-1, mouse, brain, po, 1 mg/kg, Study 3A, Compound A 1 mg/kg PO, 1 h, read-out: Brain): 90 nM
concentration at 1 h ([2]; CF-1, mouse, brain, po, 3 mg/kg, Study 3A, Compound A 3 mg/kg PO, 1 h, read-out: Brain): 260 nM
concentration at 1 h ([2]; CF-1, mouse, brain, po, 4 mg/kg, Study 3B, Compound A 4 mg/kg PO 1 h alone, read-out: Brain): 30 ± 20 nM
concentration at 1 h ([2]; CF-1, mouse, brain, po, 4 mg/kg, Study 3C, Compound A 4 mg/kg PO 1 h alone, read-out: Brain): 410 ± 230 nM
concentration at 1 h ([2]; CF-1, mouse, brain, po, 5 mg/kg, Study 3A, Compound A 5 mg/kg PO, 1 h, read-out: Brain): 290 nM
concentration at 1 h ([2]; CF-1, mouse, brain, po, 8 mg/kg, Study 3A, Compound A 8 mg/kg PO, 1 h, read-out: Brain): 700 ± 410 nM
concentration at 1 h ([2]; CF-1, mouse, plasma, po, 1 mg/kg, Study 3A, Compound A 1 mg/kg PO, 1 h, read-out: Plasma): 40 nM
concentration at 1 h ([2]; CF-1, mouse, plasma, po, 3 mg/kg, Study 3A, Compound A 3 mg/kg PO, 1 h, read-out: Plasma): 150 nM
concentration at 1 h ([2]; CF-1, mouse, plasma, po, 4 mg/kg, Study 3B, Compound A 4 mg/kg PO 1 h alone, read-out: Plasma): 14 ± 9 nM
concentration at 1 h ([2]; CF-1, mouse, plasma, po, 4 mg/kg, Study 3C, Compound A 4 mg/kg PO 1 h alone, read-out: Plasma): 167 ± 89.7 nM
concentration at 1 h ([2]; CF-1, mouse, plasma, po, 5 mg/kg, Study 3A, Compound A 5 mg/kg PO, 1 h, read-out: Plasma): 180 nM
concentration at 1 h ([2]; CF-1, mouse, plasma, po, 8 mg/kg, Study 3A, Compound A 8 mg/kg PO, 1 h, read-out: Plasma): 470 ± 290 nM
fold higher concentrations of Compound A in plasma and brain in Study 3C than in Study 3B ([2]; Compound A 4 mg/kg PO, 1 h): more than 10 fold
Plasma ([2]; Study 3A, Compound A 8 mg/kg PO, 1 h, 8 mg/kg): 0.47 µM
concentration at 1 h ([2]; Study 3A, Compound A 8 mg/kg PO, 1 h, 8 mg/kg, read-out: Brain): 700 nM
Plasma ([2]; Study 3B, Compound A 4 mg/kg PO 1 h alone, 4 mg/kg): 0.01 ± 0.01 µM
Plasma ([2]; Study 3B, Compound A 4 mg/kg PO 1 h alone, listed as Cmpd A, 4 mg/kg): 0.01 µM
concentration at 1 h ([2]; Study 3B, Compound A 4 mg/kg PO 1 h alone, listed as Cmpd A, 4 mg/kg, read-out: Brain): 30 nM
Plasma ([2]; Study 3C, Compound A 4 mg/kg PO 1 h alone, 4 mg/kg): 0.17 µM
concentration at 1 h ([2]; Study 3C, Compound A 4 mg/kg PO 1 h alone, 4 mg/kg, read-out: Brain): 410 nM
concentration at 1 h ([2]; mouse, brain, oral, Studies 3B+3C combined, analyte Compound A, 4 mg/kg PO + Levetiracetam 300 mg/kg IP, read-out: Brain): 210 nM
concentration at 1 h ([2]; mouse, brain, oral, Study 3B, analyte Compound A, 4 mg/kg PO + Levetiracetam 300 mg/kg IP, read-out: Brain): 40 nM
concentration at 1 h ([2]; mouse, brain, oral, Study 3C, analyte Compound A, 4 mg/kg PO + Levetiracetam 300 mg/kg IP, read-out: Brain): 383 nM
concentration at 1 h ([2]; mouse, brain, po, 4 mg/kg, Studies 3B+3C combined, Compound A 4 mg/kg PO 1 h alone, read-out: Brain): 220 nM
concentration at 1 h ([2]; mouse, brain, po, 4 mg/kg, Study 3B, Compound A 4 mg/kg PO 1 h alone, read-out: Brain): 30 ± 20 nM
concentration at 1 h ([2]; mouse, brain, po, 4 mg/kg, Study 3C, Compound A 4 mg/kg PO 1 h alone, read-out: Brain): 410 ± 230 nM
concentration at 1 h ([2]; mouse, plasma, oral, Studies 3B+3C combined, analyte Compound A, 4 mg/kg PO + Levetiracetam 300 mg/kg IP, read-out: Plasma): 90 nM
concentration at 1 h ([2]; mouse, plasma, oral, Study 3B, analyte Compound A, 4 mg/kg PO + Levetiracetam 300 mg/kg IP, read-out: Plasma): 20 nM
concentration at 1 h ([2]; mouse, plasma, oral, Study 3C, analyte Compound A, 4 mg/kg PO + Levetiracetam 300 mg/kg IP, read-out: Plasma): 170 nM
concentration at 1 h ([2]; mouse, plasma, po, 4 mg/kg, Studies 3B+3C combined, Compound A 4 mg/kg PO 1 h alone, read-out: Plasma): 100 nM
concentration at 1 h ([2]; mouse, plasma, po, 4 mg/kg, Study 3B, Compound A 4 mg/kg PO 1 h alone, read-out: Plasma): 14 ± 9 nM
concentration at 1 h ([2]; mouse, plasma, po, 4 mg/kg, Study 3C, Compound A 4 mg/kg PO 1 h alone, read-out: Plasma): 170 ± 90 nM
concentration at 2 h [3]: 30 nM and 11.1 ng/mL

Reference: patent US20220288057A1, “CONJOINT THERAPY FOR TREATING SEIZURE DISORDERS” (XENON PHARMACEUTICALS INC., priority 2021, published 2022)
